# In paper PMC11249646, “Small-Molecule Disruptors of the Interaction between Calcium- and Integrin-Binding Protein 1 and Integrin αIIbβ3 as Novel Antiplatelet Agents” (ACS Pharmacology & Translational Science, 2024):
# Where two headings read alike, the source gives them in different places.
# Columns and labels:
# [1] = target: T1, CIB1 and αIIb interaction (GST-CIB1 : F-αIIb peptide) (Homo sapiens, UniProt Q99828); test: FP assay, 384-well format (screen); format: binding; details: 384-well FP assay; Table 1; read-out: FP assay IC50
# T1 construct: made in house; host or cells: BL-21 plus RIL cells (E. coli)
# T1 sequence (Q99828 1-191): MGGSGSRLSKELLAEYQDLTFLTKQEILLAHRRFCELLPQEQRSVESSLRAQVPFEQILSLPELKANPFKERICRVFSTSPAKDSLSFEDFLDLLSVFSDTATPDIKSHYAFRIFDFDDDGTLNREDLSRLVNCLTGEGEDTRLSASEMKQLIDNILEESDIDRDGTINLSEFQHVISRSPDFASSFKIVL
# [2] = system: washed human platelets; test: Human platelet aggregation assay (thrombin-induced); format: cell-based; details: for inhibition at 10 µM: Homo sapiens, Platelet, single concentration of 10 μM (n = 3), thrombin; for Thrombin Assay 10 µM (%): platelet aggregation inhibition at 10 µM
# Text: A classical challenge in target-based drug discovery is moving from biochemical to cellular assay and the essential step of determining if the compounds of interest can perform in a cellular context. After characterization of the compounds in a series of biochemical assay formats, our next step was to assess their activity in a cellular environment. Our previous studies have shown that the interaction of the cytoplasmic domain of integrin αIIbβ3, a key regulator of platelet aggregation, with CIB1, is involved in downstream signaling in platelet activation and aggregation. We sought to determine whether our candidate compounds were inhibiting this interaction by evaluating them for platelet function in a human platelet aggregation assay. We prepared platelet-rich plasma (PRP) and washed the platelets as previously described[44] and then performed a platelet aggregation assay using the washed platelet suspensions (2 × 10^8/platelets/mL) followed by the recording of aggregation traces (see Materials and Methods Section). To induce platelet aggregation, 0.03 U/mL of thrombin, a physiological agonist of platelet activation, was used.
# Figure 6 Effect of compounds on human platelet activation. Representative platelet aggregation tracings of washed human platelet suspensions pretreated for 30 min at 37 °C with vehicle (DMSO) or compounds at indicated concentrations followed by activation with thrombin (0.03–0.1 U/mL). Panel (A): NCGC00071855. Panel (B–D): NCGC00351170. Panel (E): CD62P exposure was in the presence of NCGC00351170. Data represents mean ± SEM, n = 4 individual experiments; ns = non significant *P < 0.05, ***P < 0.001, ****P < 0.0001.
# Whole blood was drawn by venipuncture from healthy adult volunteers (of both gender and race) with informed consent. Approval was obtained from the institutional review boards of Thomas Jefferson University, according to the Declaration of Helsinki. Blood was collected in acidified citrate dextrose as an anticoagulant. Platelet-rich plasma (PRP) and washed platelets were prepared, as previously described.[44] Platelet aggregation was performed using washed platelet suspensions containing 2 × 10^8 platelets/mL using a Chrono-Log Lumi-Aggregometer (Chrono-Log), as described previously.[11] Aggregation traces were recorded by using Aggrolink software (Chrono-Log). Thrombin-induced P-selectin (CD62P) exposure was performed using Accuri C6 flowcytometer (BD Bioscience) as described previously.[11]
# Figure S9: Effect of compounds on human platelet activation. Representative platelet aggregation
# tracings of washed human platelet suspensions treated with vehicle (DMSO) or indicated
# compounds at 10 μM for 30 minutes at 37 °C followed by activation with thrombin (0.03U/mL).
# [3] = In vitro ADME: solubility; format: physicochemical
# [4] = In vitro ADME: PAMPA permeability
# [5] = target: T2, CIB1 and αIIb interaction (CIB1-GST : F-αIIb peptide) (Homo sapiens, UniProt Q99828); test: FP assay, 1536-well qHTS format (primary and confirmatory screen); format: binding; details: for Confirm? (confirmatory screen): YES/NO; for Curve Class (confirmatory screen): qHTS curve class; for Efficacy (%): negative = inhibition
# T2 construct: made in house; host or cells: BL-21 plus RIL cells (E. coli)
# T2 sequence (Q99828 1-191): T1 sequence (Q99828 1-191)
# [6] = target: T3, GST-CIB1 : F-scrambled peptide (Homo sapiens, UniProt Q99828); test: FP scrambled-peptide counter screen, 1536-well format; format: binding; details: counterscreen; for Curve Class (counterscreen): qHTS curve class, negative sign = inhibitory curve; for IC50: read-out: IC50 [μM] (counterscreen)
# T3 construct: made in house; host or cells: BL-21 plus RIL cells (E. coli)
# T3 sequence (Q99828 1-191): T1 sequence (Q99828 1-191)
# [7] = confirmatory screen, negative sign = inhibitory curve
# [8] = confirmatory screen, read-out: IC50 [μM] (confirmatory screen)
Compound,IC50 [1] [µM],inhibition at 10 µM [2] [%],Thrombin Assay 10 µM (%) [2] [%],solubility ([3]; read-out: Solubility) [µg/mL],Papp [4] [×10⁻⁶ cm/s],Efficacy (%) (confirmatory screen) ([5]; confirmatory screen),Confirm? (confirmatory screen) ([5]; confirmatory screen),"Curve Class (confirmatory screen) [5, 7]","IC50 [5, 8] [µM]","Efficacy (%) ([5]; qHTS primary screen hits, Table S2)","Curve Class ([5]; qHTS primary screen hits, Table S2, negative sign = inhibitory curve, several classes where COUNT > 1)","IC50 ([5]; qHTS primary screen hits, Table S2, read-out: IC50) [µM]",Efficacy (%) (counterscreen) [6],Curve Class (counterscreen) [6],IC50 [6] [µM],"Efficacy (%) ([5]; qHTS FP screen hits, Table S2)","IC50 ([5]; qHTS FP screen hits, Table S2, read-out: IC50) [µM]",solubility [3] [µg/mL],PAMPA [4]
O=C(c1ccc(C(F)(F)F)cc1)c1no[n+]([O-])c1C(=O)c1ccc(C(F)(F)F)cc1 [NCGC00351164-01],7.26,98,98,> 64,11,–,–,–,–,–,–,–,–,–,–,–,–,–,–
O=C(c1ccccc1)c1no[n+]([O-])c1C(=O)c1ccccc1 [NCGC00351168-02],7.85,97,97,26,2,-54,YES,-2.2,31.6,-49,-1.2,25.1,-34,-1.4,25.1,–,–,–,–
O=C(O)C(F)(F)F.O=C(c1ccc(F)cc1)c1no[n+]([O-])c1C(=O)c1ccc(F)cc1 [NCGC00351162-01],–,–,–,> 49,6.01,-69,YES,-1.2,12.6,–,–,–,-68,-2.2,35.5,–,–,–,–
COc1ccc(C(=O)c2no[n+]([O-])c2C(=O)c2ccc(OC)cc2)cc1.O=C(O)C(F)(F)F [NCGC00064079-03],4.53,99,99,9,285,-37,YES,-1.4,6.3,–,–,–,-30,-1.4,3.2,-27,8.9,–,–
O=C(c1ccccc1)c1no[n+]([O-])c1C(=O)c1ccccc1 [NCGC00351168-01],–,–,–,–,–,–,–,–,–,–,–,–,–,–,–,–,–,> 43,< 1 10-6 cm/s
O=C(c1cccs1)c1no[n+]([O-])c1CO [NCGC00354607-01],–,14,14,23,130,–,–,–,–,–,–,–,–,–,–,–,–,–,–
O=C(c1cccs1)c1no[n+]([O-])c1C(=O)c1cccs1 [NCGC00071855-06],–,–,–,–,–,–,–,–,–,–,–,–,–,–,–,–,–,14,153 10-6 cm/s
